Test results: patent US6355799B1, “Substituted benzene compounds, process for their preparation, and herbicidal and defoliant compositions containing them” (ISK Americas Incorporated, priority 1997, dated 2002)

Experiments:
Format in all cases: in vivo
[1] = test system: redroot pigweed (Amaranthus retroflexus, AMARE); assay: Pre-emerge test, greenhouse herbicide activity screening; settings: pre-emerge, phytotoxicity rating 0-100 at 14 days after application
In short: (§1)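 Rating: 0–100 visual injury, 14 DAA. Application: acetone, 187 l/ha, 15–1000 g ai/ha, flat-fan track sprayer with nozzle 40–45 cm above soil or canopy. Post-emerge runs used 0.25% v/v surfactant on 2–3 leaf plants.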

[2] = test system: barnyardgrass (Echinochloa crus-galli, ECHCG); assay: as above; settings: pre-emerge, phytotoxicity rating 0-100 at 14 days after application
In short: as §1

[3] = test system: green foxtail (Setaria viridis, SETVI); assay: as above; settings: pre-emerge, phytotoxicity rating 0-100 at 14 days after application
In short: as §1

[4] = test system: ivyleaf morningglory (Ipomoea hederacea, IPOHE); assay: as above; settings: pre-emerge, phytotoxicity rating 0-100 at 14 days after application
In short: as §1

[5] = test system: johnsongrass (Sorghum halepense, SORHA); assay: as above; settings: pre-emerge, phytotoxicity rating 0-100 at 14 days after application
In short: as §1

[6] = test system: lambsquarters (Chenopodium album, CHEAL); assay: as above; settings: pre-emerge, phytotoxicity rating 0-100 at 14 days after application
In short: as §1

[7] = test system: large crabgrass (Digitaria sanguinalis, DIGSA); assay: as above; settings: pre-emerge, phytotoxicity rating 0-100 at 14 days after application
In short: as §1

[8] = test system: sicklepod (Cassia obtusifolia, CASOB); assay: as above; settings: pre-emerge, phytotoxicity rating 0-100 at 14 days after application
In short: as §1

[9] = test system: velvetleaf (Abutilon theophrasti, ABUTH); assay: as above; settings: pre-emerge, phytotoxicity rating 0-100 at 14 days after application
In short: as §1

[10] = test system: field corn (Zea mays L., var. Dekalb 535, CORN); assay: Pre-emerge test, crop safety; settings: crop damage, pre-emerge, phytotoxicity rating 0-100 at 14 days after application
In short: (§2)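 Fourteen days after spraying, crop and weed injury was graded visually from 0, no effect, to 100, every plant dead. Test substances were dissolved in acetone and applied at 15–1000 g ai/ha with a flat-fan nozzle. Application was either pre-emergence, one day after sowing, or post-emergence at the 2–3 leaf stage.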

[11] = test system: upland rice (Oryza sp., var. Tebonnet, RICE); assay: Pre-emerge test, crop safety; settings: crop damage, pre-emerge, phytotoxicity rating 0-100 at 14 days after application
In short: as §2

[12] = test system: barnyardgrass (Echinochloa crus-galli, ECHCG); assay: Post-emerge test, greenhouse herbicide activity screening; settings: post-emerge, phytotoxicity rating 0-100 at 14 days after application
In short: (§3)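 Plants grown in 10 cm pots of sandy loam mix received acetone-dissolved compounds through a moving flat-fan nozzle. Doses ranged from 15 to 1000 g ai/ha. Pre-emerge pots were seeded one day earlier, post-emerge pots 8–21 days earlier. Fourteen days on, each pot was graded 0–100 for damage.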

[13] = test system: green foxtail (Setaria viridis, SETVI); assay: as above; settings: post-emerge, phytotoxicity rating 0-100 at 14 days after application
In short: as §3

[14] = test system: ivyleaf morningglory (Ipomoea hederacea, IPOHE); assay: as above; settings: post-emerge, phytotoxicity rating 0-100 at 14 days after application
In short: as §3

[15] = test system: johnsongrass (Sorghum halepense, SORHA); assay: as above; settings: post-emerge, phytotoxicity rating 0-100 at 14 days after application
In short: as §3

[16] = test system: lambsquarters (Chenopodium album, CHEAL); assay: as above; settings: post-emerge, phytotoxicity rating 0-100 at 14 days after application
In short: as §3

[17] = test system: large crabgrass (Digitaria sanguinalis, DIGSA); assay: as above; settings: post-emerge, phytotoxicity rating 0-100 at 14 days after application
In short: as §3

[18] = test system: redroot pigweed (Amaranthus retroflexus, AMARE); assay: as above; settings: post-emerge, phytotoxicity rating 0-100 at 14 days after application
In short: as §3

[19] = test system: sicklepod (Cassia obtusifolia, CASOB); assay: as above; settings: post-emerge, phytotoxicity rating 0-100 at 14 days after application
In short: as §3

[20] = test system: velvetleaf (Abutilon theophrasti, ABUTH); assay: as above; settings: post-emerge, phytotoxicity rating 0-100 at 14 days after application
In short: as §3

[21] = test system: field corn (Zea mays L., var. Dekalb 535, CORN); assay: Post-emerge test, crop safety; settings: post-emerge, crop damage rating 0-100 at 14 days after application
In short: as §3

[22] = test system: upland rice (Oryza sp., var. Tebonnet, RICE); assay: Post-emerge test, crop safety; settings: post-emerge, crop damage rating 0-100 at 14 days after application
In short: as §3

COc1cccc(OC)c1OC(=O)Nc1c(C)c(Cl)cc(F)c1-n1c(=O)cc(C(F)(F)F)n(C)c1=O [4-59]
Pre-emerge Herbicidal Activity AMARE ([1]; rate 63 g ai/ha): 100
Pre-emerge Herbicidal Activity AMARE ([1]; rate 250 g ai/ha): 100
Pre-emerge Herbicidal Activity ECHCG ([2]; rate 63 g ai/ha): 10
Pre-emerge Herbicidal Activity ECHCG ([2]; rate 250 g ai/ha): 90
Pre-emerge Herbicidal Activity SETVI ([3]; rate 63 g ai/ha): 30
Pre-emerge Herbicidal Activity SETVI ([3]; rate 250 g ai/ha): 90
Pre-emerge Herbicidal Activity IPOHE ([4]; rate 63 g ai/ha): 95
Pre-emerge Herbicidal Activity IPOHE ([4]; rate 250 g ai/ha): 100
Pre-emerge Herbicidal Activity SORHA ([5]; rate 63 g ai/ha): 40
Pre-emerge Herbicidal Activity SORHA ([5]; rate 250 g ai/ha): 95
Pre-emerge Herbicidal Activity CHEAL ([6]; rate 63 g ai/ha): 100
Pre-emerge Herbicidal Activity CHEAL ([6]; rate 250 g ai/ha): 100
Pre-emerge Herbicidal Activity DIGSA ([7]; rate 63 g ai/ha): 40
Pre-emerge Herbicidal Activity DIGSA ([7]; rate 250 g ai/ha): 100
Pre-emerge Herbicidal Activity CASOB ([8]; rate 63 g ai/ha): 20
Pre-emerge Herbicidal Activity CASOB ([8]; rate 250 g ai/ha): 90
Pre-emerge Herbicidal Activity ABUTH ([9]; rate 63 g ai/ha): 100
Pre-emerge Herbicidal Activity ABUTH ([9]; rate 250 g ai/ha): 100
Pre-emerge Herbicidal Activity CORN ([10]; rate 63 g ai/ha): 5
Pre-emerge Herbicidal Activity CORN ([10]; rate 250 g ai/ha): 80
Pre-emerge Herbicidal Activity RICE ([11]; rate 63 g ai/ha): 0
Pre-emerge Herbicidal Activity RICE ([11]; rate 250 g ai/ha): 70
Post-emerge Herbicidal Activity ECHCG ([12]; 63 g ai/ha): 0
Post-emerge Herbicidal Activity ECHCG ([12]; 250 g ai/ha): 20
Post-emerge Herbicidal Activity SETVI ([13]; 63 g ai/ha): 0
Post-emerge Herbicidal Activity SETVI ([13]; 250 g ai/ha): 30
Post-emerge Herbicidal Activity IPOHE ([14]; 63 g ai/ha): 100
Post-emerge Herbicidal Activity IPOHE ([14]; 250 g ai/ha): 100
Post-emerge Herbicidal Activity SORHA ([15]; 63 g ai/ha): 0
Post-emerge Herbicidal Activity SORHA ([15]; 250 g ai/ha): 30
Post-emerge Herbicidal Activity CHEAL ([16]; 63 g ai/ha): 100
Post-emerge Herbicidal Activity CHEAL ([16]; 250 g ai/ha): 100
Post-emerge Herbicidal Activity DIGSA ([17]; 63 g ai/ha): 0
Post-emerge Herbicidal Activity DIGSA ([17]; 250 g ai/ha): 20
Post-emerge Herbicidal Activity AMARE ([18]; 63 g ai/ha): 90
Post-emerge Herbicidal Activity AMARE ([18]; 250 g ai/ha): 100
Post-emerge Herbicidal Activity CASOB ([19]; 63 g ai/ha): 30
Post-emerge Herbicidal Activity CASOB ([19]; 250 g ai/ha): 60
Post-emerge Herbicidal Activity ABUTH ([20]; 63 g ai/ha): 100
Post-emerge Herbicidal Activity ABUTH ([20]; 250 g ai/ha): 100
Post-emerge Herbicidal Activity CORN ([21]; 63 g ai/ha): 5
Post-emerge Herbicidal Activity CORN ([21]; 250 g ai/ha): 25
Post-emerge Herbicidal Activity RICE ([22]; 63 g ai/ha): 50
Post-emerge Herbicidal Activity RICE ([22]; 250 g ai/ha): 60

Cc1ccc(COC(=O)Nc2c(C)c(Cl)cc(F)c2-n2c(=O)cc(C(F)(F)F)n(C)c2=O)cc1 [4-60]
Pre-emerge Herbicidal Activity AMARE ([1]; rate 63 g ai/ha): 100
Pre-emerge Herbicidal Activity AMARE ([1]; rate 250 g ai/ha): 100
Pre-emerge Herbicidal Activity ECHCG ([2]; rate 63 g ai/ha): 40
Pre-emerge Herbicidal Activity ECHCG ([2]; rate 250 g ai/ha): 70
Pre-emerge Herbicidal Activity SETVI ([3]; rate 63 g ai/ha): 90
Pre-emerge Herbicidal Activity SETVI ([3]; rate 250 g ai/ha): 100
Pre-emerge Herbicidal Activity IPOHE ([4]; rate 63 g ai/ha): 50
Pre-emerge Herbicidal Activity IPOHE ([4]; rate 250 g ai/ha): 100
Pre-emerge Herbicidal Activity SORHA ([5]; rate 63 g ai/ha): 30
Pre-emerge Herbicidal Activity SORHA ([5]; rate 250 g ai/ha): 50
Pre-emerge Herbicidal Activity CHEAL ([6]; rate 63 g ai/ha): 100
Pre-emerge Herbicidal Activity CHEAL ([6]; rate 250 g ai/ha): 100
Pre-emerge Herbicidal Activity DIGSA ([7]; rate 63 g ai/ha): 100
Pre-emerge Herbicidal Activity DIGSA ([7]; rate 250 g ai/ha): 100
Pre-emerge Herbicidal Activity CASOB ([8]; rate 63 g ai/ha): 90
Pre-emerge Herbicidal Activity CASOB ([8]; rate 250 g ai/ha): 100
Pre-emerge Herbicidal Activity ABUTH ([9]; rate 63 g ai/ha): 100
Pre-emerge Herbicidal Activity ABUTH ([9]; rate 250 g ai/ha): 100
Pre-emerge Herbicidal Activity CORN ([10]; rate 63 g ai/ha): 0
Pre-emerge Herbicidal Activity CORN ([10]; rate 250 g ai/ha): 30
Pre-emerge Herbicidal Activity RICE ([11]; rate 63 g ai/ha): 60
Pre-emerge Herbicidal Activity RICE ([11]; rate 250 g ai/ha): 70
Post-emerge Herbicidal Activity ECHCG ([12]; 63 g ai/ha): 60
Post-emerge Herbicidal Activity ECHCG ([12]; 250 g ai/ha): 50
Post-emerge Herbicidal Activity SETVI ([13]; 63 g ai/ha): 65
Post-emerge Herbicidal Activity SETVI ([13]; 250 g ai/ha): 90
Post-emerge Herbicidal Activity IPOHE ([14]; 63 g ai/ha): 100
Post-emerge Herbicidal Activity IPOHE ([14]; 250 g ai/ha): 100
Post-emerge Herbicidal Activity SORHA ([15]; 63 g ai/ha): 50
Post-emerge Herbicidal Activity SORHA ([15]; 250 g ai/ha): 50
Post-emerge Herbicidal Activity CHEAL ([16]; 63 g ai/ha): 100
Post-emerge Herbicidal Activity CHEAL ([16]; 250 g ai/ha): 100
Post-emerge Herbicidal Activity DIGSA ([17]; 63 g ai/ha): 40
Post-emerge Herbicidal Activity DIGSA ([17]; 250 g ai/ha): 60
Post-emerge Herbicidal Activity AMARE ([18]; 63 g ai/ha): 100
Post-emerge Herbicidal Activity AMARE ([18]; 250 g ai/ha): 100
Post-emerge Herbicidal Activity CASOB ([19]; 63 g ai/ha): 60
Post-emerge Herbicidal Activity CASOB ([19]; 250 g ai/ha): 100
Post-emerge Herbicidal Activity ABUTH ([20]; 63 g ai/ha): 100
Post-emerge Herbicidal Activity ABUTH ([20]; 250 g ai/ha): 100
Post-emerge Herbicidal Activity CORN ([21]; 63 g ai/ha): 25
Post-emerge Herbicidal Activity CORN ([21]; 250 g ai/ha): 55
Post-emerge Herbicidal Activity RICE ([22]; 63 g ai/ha): 50
Post-emerge Herbicidal Activity RICE ([22]; 250 g ai/ha): 70
